Assay [1] deals with T1, Sphingosine 1-phosphate receptor 1 (Homo sapiens, UniProt P21453). Nature of the assay: Displacement of [33P]S1P from human S1P1 receptor expressed in HEK293T cells after 1 hr by liquid scintillation counting analysis. The assay is classed as cell-based, HEK-293T.
Assay [2] deals with T2, Sphingosine 1-phosphate receptor 3 (Homo sapiens, UniProt Q99500). The assay can be described thus: Displacement of [33P]S1P from human S1P3 receptor expressed in HEK293T cells after 1 hr by liquid scintillation counting analysis. The assay is classed as cell-based, HEK-293T.
The test system of assay [3] is Mus musculus. Nature of the assay: Immunomodulatory activity in C57Bl/6 mouse assessed as induction of lymphopenia at 10 mg/kg, po measured after 6 hrs. The assay is classed as functional.
Assay [4] addresses T1, Sphingosine 1-phosphate receptor 1. Nature of the assay: Agonist activity at human S1P1 receptor expressed in HEK293T cells assessed as stimulation of [35S]GTPgammaS binding. The class given is functional, cell-based, HEK-293T. (In general: GTPγS is a poorly hydrolysed GTP analogue; its binding reports G protein activation.)
Assay [5] has as its target T2, Sphingosine 1-phosphate receptor 3. The assay can be described thus: Agonist activity at human S1P3 receptor expressed in HEK293T cells assessed as stimulation of [35S]GTPgammaS binding. The class given is functional, cell-based, HEK-293T.
For assay [6], the species on record is Homo sapiens. Nature of the assay: Selectivity index, ratio of EC50 for human S1P3 to EC50 for human S1P1.
For assay [7], the system named is Mus musculus. Nature of the assay: Immunomodulatory activity in C57Bl/6 mouse assessed as induction of lymphopenia at 20 mg/kg, iv measured after 6 hrs. The assay is classed as functional.
The species named for assay [8] is Homo sapiens. Nature of the assay: Selectivity index, ratio of IC50 for human S1P3 to IC50 for human S1P1.
The test system of assay [9] is Mus musculus. Nature of the assay: Immunomodulatory activity in C57Bl/6 mouse assessed as induction of lymphopenia at 1 mg/kg, po measured after 6 hrs. The class given is functional.

Structures are written as SMILES. Bounds are passed on as bounds.

Broadly, the IC50 is the concentration that gives 50% inhibition. What is called EC50 is the concentration needed to bring the measured effect to its halfway point.

T2 sequence (Q99500 whole entry): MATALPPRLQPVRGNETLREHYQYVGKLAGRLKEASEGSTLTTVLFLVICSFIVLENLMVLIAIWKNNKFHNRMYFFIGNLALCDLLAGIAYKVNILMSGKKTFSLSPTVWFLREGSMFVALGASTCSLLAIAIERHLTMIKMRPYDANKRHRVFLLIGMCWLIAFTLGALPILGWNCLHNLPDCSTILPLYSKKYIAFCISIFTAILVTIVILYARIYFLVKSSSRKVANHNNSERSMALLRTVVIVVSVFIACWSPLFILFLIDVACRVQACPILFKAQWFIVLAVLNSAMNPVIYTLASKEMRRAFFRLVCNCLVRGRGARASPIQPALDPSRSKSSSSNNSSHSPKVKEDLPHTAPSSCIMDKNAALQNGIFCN
T1 sequence (P21453 whole entry): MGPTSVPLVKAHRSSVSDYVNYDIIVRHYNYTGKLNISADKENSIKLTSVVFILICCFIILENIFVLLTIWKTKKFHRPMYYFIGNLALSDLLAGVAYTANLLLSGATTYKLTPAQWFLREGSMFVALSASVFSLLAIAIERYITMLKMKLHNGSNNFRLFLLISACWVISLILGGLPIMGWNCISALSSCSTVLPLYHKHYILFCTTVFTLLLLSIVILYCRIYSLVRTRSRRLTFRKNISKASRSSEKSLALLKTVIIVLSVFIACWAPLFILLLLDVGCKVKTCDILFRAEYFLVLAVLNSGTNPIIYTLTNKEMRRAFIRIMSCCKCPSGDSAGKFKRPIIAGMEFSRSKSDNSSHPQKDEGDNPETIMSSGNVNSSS

In the case of `CCCCCCCCOc1ccc(NC(=O)[C@@](C)(N)/C=C/C(=O)O)cc1`, the figures for the concentration for half-maximal inhibition (IC50) in [1] and in assay [2] were 74 nM and 10000 nM, respectively. Also, in the assay on Mus musculus [3], the Activity turned out to be 25%.
Turning to `CCCCCCCCc1ccc(NC(=O)[C@@](C)(N)CC(=O)O)cc1C(F)(F)F`, the IC50 in assay [1] is 370 nM; in assay [2] it was more than 10000 nM.
In the case of `N[C@@H](CC(=O)O)c1nc(-c2ccc(OCc3ccc(-c4ccccc4)cc3)c(C(F)(F)F)c2)c[nH]1`, the figures for the IC50 in [1] and in [2] were 17 nM and more than 10000 nM, respectively. Besides, the figures for the EC50 in assay [4] and in assay [5] were 161 nM and more than 3000 nM, respectively. In addition, the Ratio EC50 in the assay filed under Homo sapiens [6] was more than 18.6.
Regarding `O=C(O)CCc1nc(-c2ccc(OCc3ccc(-c4ccccc4)cc3)c(C(F)(F)F)c2)c[nH]1`, the results for the IC50 in assay [1] and in [2] were 3000 nM and more than 10000 nM, respectively.
`C[C@](N)(CC(=O)O)c1nc(-c2ccc(OCc3ccc(-c4ccccc4)cc3)c(C(F)(F)F)c2)c[nH]1`: the results for the IC50 in [1] and in assay [2] were 82 nM and more than 10000 nM, respectively. The concentration for a half-maximal effect (EC50) is 700 nM in [4] and more than 3000 nM in assay [5]. In addition, in the assay listed under Homo sapiens [6], the Ratio EC50 was more than 4.
Take `CCCCCCCCOc1ccc(NC(=O)[C@@H](N)CC(=O)O)cc1C(F)(F)F`: the IC50 was 53 nM in [1] and more than 10000 nM in assay [2]. Moreover, the Activity amounted to 33% with Mus musculus [3] and 60% with Mus musculus [7]. Further, the values for the EC50 in assay [4] and in assay [5] were 231 nM and more than 3000 nM, respectively. For the same compound, the Ratio EC50 in the assay filed under Homo sapiens [6] was more than 13.
As for `CCCCCCCCOc1ccc(NC(=O)[C@@](C)(N)CCC(=O)O)cc1`, the IC50 in [1] worked out at 77 nM; in [2], 10000 nM.
Take `CCCCCCCCOc1ccc(NC(=O)[C@@](C)(N)CC(=O)O)cc1C(F)(F)F`: the IC50 in assay [1] was 95 nM; in assay [2], more than 10000 nM. The Activity in the assay on Mus musculus [3] was 24%. For the same compound, the results for the EC50 in assay [4] and in assay [5] were 135 nM and more than 3000 nM, respectively. Moreover, the Ratio EC50 in the assay listed under Homo sapiens [6] is more than 22.
Consider `CCCCCCCCOc1ccc(NC(=O)[C@@H](N)CC(=O)O)cc1`, for which the IC50 in assay [1] turned out to be 14.4 nM; in assay [2], 1050 nM. Also, the Ratio IC50 in the assay listed under Homo sapiens [8] came out at 73. In the assay with Mus musculus [3], the Activity amounted to 57%. The EC50 in [4] was found to be 164 nM; in assay [5] it was 1800 nM. Besides, in the assay filed under Homo sapiens [6], the Ratio EC50 amounted to 11.
Turning to `CCCCCCCCOc1ccc(NC(=O)[C@@H](N)CCC(=O)O)cc1`, the IC50 in assay [1] stood at 92 nM; in assay [2], 10000 nM. Besides, the Activity in the assay with Mus musculus [3] was 44%.
For the compound `CCCCCCCCc1ccc(CCC(N)(CO)CO)cc1` [FINGOLIMOD], the Activity in the assay on Mus musculus [9] is reported as 80%.

The values above are taken from ChEMBL document CHEMBL2311443, “Exploring amino acids derivatives as potent, selective, and direct agonists of sphingosine-1-phosphate receptor subtype-1” (Bioorg Med Chem Lett, 2013).
